Assay results reported in patent US12419889B2, “Methods of treating chronic spontaneous urticaria using a bruton's tyrosine kinase inhibitor” (NOVARTIS AG, priority 2019, dated 2025).

Assays:
Format in all cases: in vivo
BTK = target: T1, BTK (Mus musculus, UniProt P35991); experiment: BTK occupancy in spleen in mouse RPA and PCA models; conditions: mouse RPA, 5 h after dosing
T1 construct: from tissue; host or cells: mouse spleen
Procedure: The in vivo PD effects of an irreversible BTK inhibitor like compound (I) are determined by the extent and duration of covalent BTK occupancy by the inhibitor. BTK occupancy after treatment with Compound of Formula (I) (also referenced to as Compound (I)) was measured in an ex vivo immunoassay. The fraction of unoccupied BTK protein was assayed after in vitro incubation with a covalent biotinylated BTK probe, since compound (I) and the probe bind to BTK in a mutually exclusive manner. Unoccupied BTK, as well as total BTK relative protein levels were determined in lysates of selected tissues and levels of unoccupied BTK were normalized to total BTK protein levels in the same samples.
(§1) Oral treatment with compound (I) at a single dose of 3, 10, 30 and 100 mg/kg, given 2 hours prior to induction of the RPA response, reduced skin swelling in a dose-related manner. […] (FIG. 2)
The effects of compound (I) on acute skin hypersensitivity were also assessed after two oral doses of compound (I) in the mouse of model of passive cutaneous anaphylaxis (PCA) (Ovary 1958). The mouse PCA model was used at a low dose of sensitizing IgE antibody to minimize complement-dependent anaphylatoxins (Schafer et al. 2013, The journal of allergy and clinical immunology, 131(2), pp. 541; Hata et al. 1998, Journal of Experimental Medicine, 187(8), pp. 1235). […] (FIG. 3). Spleen occupancy at 2.5 hours post last dose ranged from 89.1 to 99.7% (representing peak occupancy) (FIG. 4).

[1] = First-in-human study, blood and urine PK (SAD, MAD q.d., b.i.d.); conditions: for drug accumulation ratio (Racc): MAD q.d.
Procedure: A first-in-human study was conducted to assess the safety and tolerability, pharmacokinetics (PK) and pharmacodynamics (PD) of single and multiple doses of compound (I) both as once daily (qd) and twice daily (bid) oral administration in healthy volunteers and those with atopic diathesis, to support further clinical development of compound (I) in autoimmune diseases. This study also explored the effect of food intake.
First-in-human study in up to approximately 168 healthy volunteers (HVs), of which 64 (in Parts 2 & 4) had asymptomatic atopic diathesis. • Part 1 was a double-blind (subject and investigator blind, sponsor unblinded), placebo-controlled single ascending dose (SAD) escalation study of 10 cohorts (N=80) • Part 2 was a double-blind (subject and investigator blind, sponsor unblinded), placebo-controlled multiple ascending dose (MAD) (13 doses over 12 days) escalation study employing once daily dosing in 6 cohorts in healthy volunteers with asymptomatic atopic diathesis (N=48) • Part 3 was a single dose open-label crossover food effect study in 12 HVs • Part 4 was a double-blind (subject and investigator blind, sponsor unblinded), placebo-controlled multiple dose (25 doses over 12 days) study employing twice daily dosing in 2 cohorts of healthy volunteers with asymptomatic atopic diathesis (N=16)
The SAD part (Part 1) had ten dose levels and the MAD parts (Parts 2 & 4) consisted of eight dose levels (6 cohorts using single daily dosing in Part 2 and 2 cohorts using twice daily dosing in Part 4). Eight subjects were randomized into each cohort to receive either compound (I) or matching placebo in a 6:2 (active: placebo) ratio in the SAD and MAD parts. Within the SAD part, doses up to approximately 4 times the estimated pharmacologically active dose (PAD) were to be evaluated before the MAD part of the study was started, providing there was no safety signal emerging from the SAD part until then.
In Part 1, subjects were admitted to the study site on Day −2 or −1 for baseline safety assessments and to confirm eligibility. Eligible subjects received a single dose of compound (I) or placebo under fasting conditions on Day 1. They were domiciled from Day −1 to the morning of Day 5 (96 hours post last drug administration).
In Parts 2 and 4, subjects were admitted on Day −2 or −1 for baseline safety assessments and to confirm eligibility. Eligible subjects received the first dose of compound (I) under fasting conditions on Day 1, and continued to take study medication under fasting conditions up to and including Day 12. Subjects were domiciled from Day −2 or −1 until the morning of Day 16, which equals 96 hours after the last dose of compound (I) was received. In Parts 2 and 4, the study medication was given once daily and twice daily respectively (details are found in the schedule of assessments).
Subjects were assigned to one of the following 10 cohorts. In each cohort, 8 subjects were randomized to either compound (I) or matching placebo in an overall 6:2 ratio. The first sub-cohort was randomized in a 1:1 ratio as one subject on compound (I) and one on matching placebo. […]

[2] = test system: mast cell FcγRIII-mediated inflammation; experiment: Reverse passive Arthus (RPA) model, skin swelling; conditions: mouse RPA
Procedure: The duration of the PD effect in skin after single dose was assessed in the reverse passive Arthus (RPA) model of mast cell FcγRIII—mediated inflammation. In this RPA model, a polyclonal IgG antibody is injected locally into the dermis, while the soluble antigen is given systemically by i.v. injection. In this mouse model, mast cell FcγRIII has a dominant role with only minor contributions by the complement system (Hazenbos et al. 1998, journal of immunology, 161(6), pp. 3026; Hazenbos et al., Immunity, 1996, 5(2), pp. 181; Köhl & Gessner 1999, Molecular immunology, 36(13-14), pp. 893; Sylvestre & Ravetch 1996, Immunity, 5(4), pp. 387; Sylvestre & Ravetch 1994, Science, 265(5175), pp. 1095). It has been shown that genetic BTK deficient mice are protected in the passive Arthus skin reaction (Fiedler et al. 2011, blood, 117(4), pp. 1329).
as §1
In this model, the inhibition of skin swelling was maximal when compound (I) was dosed 2 hours prior to eliciting the Arthus reaction. The effect diminished gradually and reached baseline when the Arthus reaction was triggered 45 hours or later after compound (I) dosing.

T1 sequence (P35991 whole entry): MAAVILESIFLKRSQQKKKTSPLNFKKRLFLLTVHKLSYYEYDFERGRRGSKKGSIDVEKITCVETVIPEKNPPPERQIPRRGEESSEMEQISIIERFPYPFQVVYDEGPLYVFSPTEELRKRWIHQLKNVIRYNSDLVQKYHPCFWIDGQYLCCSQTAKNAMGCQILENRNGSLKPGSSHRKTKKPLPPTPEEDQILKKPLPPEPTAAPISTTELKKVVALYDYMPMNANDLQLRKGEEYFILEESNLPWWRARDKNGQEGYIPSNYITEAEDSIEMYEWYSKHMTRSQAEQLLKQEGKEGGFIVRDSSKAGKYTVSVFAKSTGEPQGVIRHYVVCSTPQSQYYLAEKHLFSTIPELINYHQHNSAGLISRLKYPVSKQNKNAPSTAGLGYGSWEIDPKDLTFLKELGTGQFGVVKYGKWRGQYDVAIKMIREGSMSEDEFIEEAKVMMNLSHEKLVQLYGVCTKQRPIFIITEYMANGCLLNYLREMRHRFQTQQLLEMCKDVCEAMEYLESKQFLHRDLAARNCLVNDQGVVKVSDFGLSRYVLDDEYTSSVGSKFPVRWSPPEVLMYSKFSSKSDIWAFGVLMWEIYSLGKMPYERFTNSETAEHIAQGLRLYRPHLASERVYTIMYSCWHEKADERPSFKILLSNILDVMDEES

- receptor occupancy at 3 mg/kg (BTK; 3 mg/kg): 68.1%
- receptor occupancy at 10 mg/kg (BTK; 10 mg/kg): 82.1%
- receptor occupancy at 30 mg/kg (BTK; 30 mg/kg): 91.3%
- receptor occupancy at 100 mg/kg (BTK; 100 mg/kg): 99.3%
- Renal clearance, mean ± SD ([1]; Day 12, 400 mg qd): 16.9 ± 7.13 mL/min
- drug accumulation ratio (Racc) ([1]; day 12 vs day 1, high dose): 1.2
- drug accumulation ratio (Racc) ([1]; day 12 vs day 1, low dose): 5
- MRT, median ([1]; blood, Day 1, 10 mg qd): 46 min
- MRT, median ([1]; blood, Day 1, 25 mg qd): 70.2 min
- AUC0-24, median ([1]; blood, Day 1, 600 mg qd): 0.932 µg·h/mL
- CLss/F, mean ± SD ([1]; blood, Day 12, 10 mg qd): 425 ± 64.8 L/h
- CLss/F, median (min-max) ([1]; blood, Day 12, 10 mg qd): 423 (341-529) L/h
- AUC0-24, mean ± SD ([1]; blood, Day 12, 25 mg qd): 0.117 ± 0.0609 µg·h/mL
- AUClast, mean ± SD ([1]; blood, Day 12, 25 mg qd): 0.114 ± 0.0597 µg·h/mL
- CLss/F, mean ± SD ([1]; blood, Day 12, 25 mg qd): 307 ± 253 L/h
- CLss/F, median (min-max) ([1]; blood, Day 12, 25 mg qd): 248 (129-809) L/h
- AUC0-24, mean ± SD ([1]; blood, Day 12, 50 mg qd): 0.209 ± 0.0802 µg·h/mL
- AUC0-24, median (min-max) ([1]; blood, Day 12, 50 mg qd): 181 (127-325) h * ng/mL
- CLss/F, mean ± SD ([1]; blood, Day 12, 50 mg qd): 268 ± 92.8 L/h
- CLss/F, median (min-max) ([1]; blood, Day 12, 50 mg qd): 276 (154-395) L/h
- CLss/F, mean ± SD ([1]; blood, Day 12, 100 mg qd): 198 ± 88.7 L/h
- CLss/F, median (min-max) ([1]; blood, Day 12, 100 mg qd): 166 (129-298) L/h
- CLss/F, mean ± SD ([1]; blood, Day 12, 400 mg qd): 366 ± 150 L/h
- CLss/F, median (min-max) ([1]; blood, Day 12, 400 mg qd): 351 (177-591) L/h
- CLss/F, mean ± SD ([1]; blood, Day 12, 600 mg qd): 521 ± 131 L/h
- CLss/F, median (min-max) ([1]; blood, Day 12, 600 mg qd): 569 (345-661) L/h
- Cmax, median (min-max) ([1]; blood, Day 12, 600 mg qd): 475 (377-985) ng/mL
- increase of Cmax from 100 mg to 200 mg b.i.d. ([1]; day 12): 1.33 fold
- oral blood clearance CL/F, estimate across all cohorts ([1]; single dose, all SAD cohorts): about 383 L/h
Compound: C=CC(=O)N(C)CCOc1c(N)ncnc1-c1cc(F)cc(NC(=O)c2ccc(C3CC3)cc2F)c1C [Compound (I), N-(3-(6-Amino-5-(2-(N-methylacrylamido)ethoxy)pyrimidin-4-yl)-5-fluoro-2-methylphenyl)-4-cyclopropyl-2-fluorobenzamide]
- time between dosing and Arthus trigger at which the effect reached baseline ([2]; single dose): ≥ 45 h
- inhibition of skin swelling ([2]; single oral dose 3 mg/kg 2 hours prior to induction): 22.9 % inhibition
- inhibition of skin swelling ([2]; single oral dose 10 mg/kg 2 hours prior to induction): 29.2 % inhibition
- inhibition of skin swelling ([2]; single oral dose 30 mg/kg 2 hours prior to induction): 73.0 % inhibition
- inhibition of skin swelling ([2]; single oral dose 100 mg/kg 2 hours prior to induction): 61.2 % inhibition
